Assay results taken from PubChem BioAssay AID248 (DTP/NCI, 2004).
Values joined by “and” are separate entries in the source; they are usually repeats but may differ in a detail not shown here. Equal entries are not always repeated. Toxic doses and inconclusive results are not listed. Rule as the data show it: active = T/C of 150% or more; inactive = T/C below 125%.

Tested on: L1210 leukemia ip in BDF1 mice, survival T/C
Experiment: NCI In Vivo Anticancer Drug Screen. Data for tumor model L1210 Leukemia (intraperitoneal) in B6D2F1 (BDF1) mice
Conditions: endpoint: mean survival time, higher = longer survival
How it was run: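 Tumor cells were implanted, animals were treated, and survival was followed. The result divides the treated measurement by the vehicle-control measurement.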

[1] = dose: 50.0 mg/kg/injection, schedule: Q01DX009 (ip), vehicle: saline
[2] = dose: 100.0 mg/kg/injection, schedule: Q01DX009 (ip), vehicle: saline
[3] = dose: 100.0 mg/kg/injection, schedule: Q04DX003 (ip), vehicle: saline
[4] = dose: 200.0 mg/kg/injection, schedule: Q01DX009 (ip), vehicle: saline
[5] = dose: 200.0 mg/kg/injection, schedule: Q04DX003 (ip), vehicle: saline
[6] = dose: 400.0 mg/kg/injection, schedule: Q04DX003 (ip), vehicle: saline
[7] = dose: 50.0 mg/kg/injection, schedule: Q01DX001 (ip), vehicle: saline
[8] = dose: 100.0 mg/kg/injection, schedule: Q01DX001 (ip), vehicle: saline
[9] = dose: 200.0 mg/kg/injection, schedule: Q01DX001 (ip), vehicle: saline
[10] = dose: 400.0 mg/kg/injection, schedule: Q01DX001 (ip), vehicle: saline
[11] = dose: 100.0 mg/kg/injection, schedule: Q04DX003 (ip), vehicle: Klucel (hydroxypropylcellulose) (HPC)
[12] = dose: 200.0 mg/kg/injection, schedule: Q04DX003 (ip), vehicle: Klucel (hydroxypropylcellulose) (HPC)
[13] = dose: 400.0 mg/kg/injection, schedule: Q04DX003 (ip), vehicle: Klucel (hydroxypropylcellulose) (HPC)
[14] = dose: 100.0 mg/kg/injection, schedule: Q01DX009 (ip), vehicle: saline with Tween-80
[15] = dose: 200.0 mg/kg/injection, schedule: Q01DX009 (ip), vehicle: saline with Tween-80
[16] = dose: 100.0 mg/kg/injection, schedule: Q01DX001 (ip), vehicle: carboxymethylcellulose (CMC)
[17] = dose: 200.0 mg/kg/injection, schedule: Q01DX001 (ip), vehicle: carboxymethylcellulose (CMC)
[18] = dose: 100.0 mg/kg/injection, schedule: Q04DX003 (ip), vehicle: saline with Tween-80
[19] = dose: 200.0 mg/kg/injection, schedule: Q04DX003 (ip), vehicle: saline with Tween-80
[20] = dose: 400.0 mg/kg/injection, schedule: Q04DX003 (ip), vehicle: saline with Tween-80
[21] = dose: 400.0 mg/kg/injection, schedule: Q01DX009 (ip), vehicle: saline with Tween-80
[22] = dose: 100.0 mg/kg/injection, schedule: Q04DX002 (ip), vehicle: Klucel (hydroxypropylcellulose) (HPC)
[23] = dose: 200.0 mg/kg/injection, schedule: Q04DX002 (ip), vehicle: Klucel (hydroxypropylcellulose) (HPC)
[24] = dose: 400.0 mg/kg/injection, schedule: Q04DX002 (ip), vehicle: Klucel (hydroxypropylcellulose) (HPC)

Measured: T/C

CC(=O)Nc1ccc(Cl)cc1C(=O)c1ccc[nH]1
inactive: [1] 110 % of control | [2] 104 % of control | [3] 106 % of control | [4] 103 % of control | [5] 108 % of control | dose: 400.0 mg/kg/injection, schedule: Q01DX009 (ip), vehicle: saline 98 % of control | [6] 93 % of control

CCOC(=O)C(C)(C)CSC(C)(C)C(=O)OCC
inactive: [3] 110 % of control | [5] 101 % of control | [6] 110 % of control

CC(NCCOc1ccccc1)c1ccccc1 (stereo not drawn)
inactive: dose: 100.0 mg/kg/injection, schedule: Q04DX002 (ip), vehicle: saline with Tween-80 108 % of control | dose: 200.0 mg/kg/injection, schedule: Q04DX002 (ip), vehicle: saline with Tween-80 105 % of control

CN1COc2c(n(C)c(=O)[nH]c2=O)C1
inactive: [7] 97 % of control | [8] 103 % of control | [9] 89 % of control | [10] 101 % of control

COc1ccc(/C=C2\SC(=S)NC2=O)cc1OC
inactive: dose: 100.0 mg/kg/injection, schedule: Q01DX009 (ip), vehicle: saline sonified 96 % of control | [11] 98 % of control | dose: 200.0 mg/kg/injection, schedule: Q01DX009 (ip), vehicle: saline sonified 108 % of control | [12] 96 % of control | dose: 400.0 mg/kg/injection, schedule: Q01DX009 (ip), vehicle: saline sonified 94 % of control | [13] 96 % of control

Cc1cc(C)n2ncnc2n1
inactive: [14] 105 % of control | [15] 99 % of control

CC(=O)N[C@H](CO)[C@H](O)c1ccc([N+](=O)[O-])cc1
inactive: dose: 100.0 mg/kg/injection, schedule: Q04DX003 (ip), vehicle: saline sonified 98 % of control | dose: 200.0 mg/kg/injection, schedule: Q04DX003 (ip), vehicle: saline sonified 104 % of control | dose: 400.0 mg/kg/injection, schedule: Q04DX003 (ip), vehicle: saline sonified 103 % of control

COc1ccc(NP2(=O)OCC(C)(N)CO2)cc1 (stereo not drawn)
inactive: [16] 91 % of control | [17] 96 % of control | dose: 400.0 mg/kg/injection, schedule: Q01DX001 (ip), vehicle: carboxymethylcellulose (CMC) 91 % of control

O=C1CCOc2ccccc21
inactive: dose: 100.0 mg/kg/injection, schedule: Q04DX002 (ip), vehicle: other 87 % of control | dose: 200.0 mg/kg/injection, schedule: Q04DX002 (ip), vehicle: other 90 % of control | dose: 400.0 mg/kg/injection, schedule: Q04DX002 (ip), vehicle: other 94 % of control

CCOC(=O)CCC(NC(=O)c1c(Cl)cc(N(C)S(=O)(=O)c2ccc(C)cc2)cc1Cl)C(=O)OCC (stereo not drawn)
inactive: [11] 105 % of control | [12] 97 % of control | [13] 97 % of control

CC(C)N(C(=S)SSC(=S)N(C(C)C)C(C)C)C(C)C
inactive: dose: 50.0 mg/kg/injection, schedule: Q01DX009 (ip), vehicle: saline with Tween-80 97 % of control | [14] 101 % of control | [15] 97 % of control

COC(=O)Cc1cc(Cl)c2cc(C)ccc2n1
inactive: dose: 100.0 mg/kg/injection, schedule: Q01DX001 (ip), vehicle: other 95 % of control | dose: 200.0 mg/kg/injection, schedule: Q01DX001 (ip), vehicle: other 98 % of control | dose: 400.0 mg/kg/injection, schedule: Q01DX001 (ip), vehicle: other 96 % of control

Cc1ccc(S(=O)(=O)OCC2CCC(COS(=O)(=O)c3ccc(C)cc3)O2)cc1 (stereo not drawn)
inactive: [11] 103 % of control | [12] 100 % of control

CC1c2ncnc(N)c2CN1C(=O)c1ccccc1 (stereo not drawn)
inactive: [16] 98 % of control | [17] 98 % of control

C[N+](C)(C)CCOC(=O)c1cccc(CBr)c1
inactive: [1] 92 % of control | [2] 95 % of control | [3] 98 % of control | [4] 93 % of control | [5] 105 % of control

CN=C(Nc1ccccn1)c1ccc(NC(=O)c2ccc(C(=O)Nc3ccc(C(=NC)Nc4ccccn4)cc3)cc2)cc1
inactive: dose: 1.87 mg/kg/injection, schedule: Q01DX015 (ip), vehicle: methylcellulose (MC) 95 % of control | dose: 3.75 mg/kg/injection, schedule: Q01DX015 (ip), vehicle: methylcellulose (MC) 96 % of control | dose: 7.5 mg/kg/injection, schedule: Q01DX015 (ip), vehicle: methylcellulose (MC) 108 % of control | dose: 15.0 mg/kg/injection, schedule: Q01DX015 (ip), vehicle: methylcellulose (MC) 101 % of control

CCOC(=O)C(C(C)=O)C(c1ccccc1)C(C(C)=O)C(=O)OCC (stereo not drawn)
inactive: dose: 25.6 mg/kg/injection, schedule: Q04DX002 (ip), vehicle: saline with Tween-80 97 % of control | dose: 64.0 mg/kg/injection, schedule: Q04DX002 (ip), vehicle: saline with Tween-80 104 % of control | [18] 101 % of control | dose: 160.0 mg/kg/injection, schedule: Q04DX002 (ip), vehicle: saline with Tween-80 112 % of control | [19] 98 % of control | dose: 400.0 mg/kg/injection, schedule: Q04DX002 (ip), vehicle: saline with Tween-80 104 % of control | [20] 93 % of control

CC(c1ccccc1)[As](C)(=O)O (stereo not drawn)
inactive: dose: 25.0 mg/kg/injection, schedule: Q04DX003 (ip), vehicle: saline 102 % of control | dose: 50.0 mg/kg/injection, schedule: Q04DX003 (ip), vehicle: saline 100 % of control | [3] 122 % of control

O=c1cc(C(O)c2ccccc2)c2cccc3c2n1CCC3 (stereo not drawn)
inactive: [14] 95 % of control | [18] 98 % of control | [15] 95 % of control | [19] 95 % of control | [21] 101 % of control | [20] 89 % of control

Cc1ccc(S(=O)(=O)N(CCCc2c(C)ncnc2Cl)c2ccccc2)cc1
inactive: [7] 101 % of control | [8] 92 % of control | [9] 98 % of control | [10] 95 % of control

CC1(C(=O)O)NC(C(=O)O)CS1 (stereo not drawn)
inactive: dose: 5.0 mg/kg/injection, schedule: Q01DX001 (ip), vehicle: saline 96 % of control | dose: 10.0 mg/kg/injection, schedule: Q01DX001 (ip), vehicle: saline 108 % of control | dose: 20.0 mg/kg/injection, schedule: Q01DX001 (ip), vehicle: saline 104 % of control | dose: 40.0 mg/kg/injection, schedule: Q01DX001 (ip), vehicle: saline 102 % of control | dose: 80.0 mg/kg/injection, schedule: Q01DX001 (ip), vehicle: saline 98 % of control

CNc1ccccc1C(=O)N/N=C/c1ccc(O)c(OC)c1
inactive: [22] 99 % of control | [23] 93 % of control | [24] 96 % of control

CN1C=CC(C(C(N)=O)c2ccccc2)c2ccccc21 (stereo not drawn)
inactive: [14] 95 % of control | [15] 92 % of control | [21] 92 % of control

Clc1ccc(N=Nc2ccccn2)cc1
inactive: [22] 101 % of control | [23] 96 % of control | [24] 93 % of control

CCCC(=O)NN=C(C)C
inactive: dose: 12.5 mg/kg/injection, schedule: Q01DX009 (ip), vehicle: saline 109 % of control | dose: 25.0 mg/kg/injection, schedule: Q01DX009 (ip), vehicle: saline 109 % of control | [1] 95 % of control

C#[C][Sn]([CH2]CCC)([CH2]CCC)[CH2]CCC
inactive: dose: 0.39 mg/kg/injection, schedule: Q01DX009 (ip), vehicle: saline with Tween-80 109 % of control | dose: 0.78 mg/kg/injection, schedule: Q01DX009 (ip), vehicle: saline with Tween-80 94 % of control | dose: 1.56 mg/kg/injection, schedule: Q01DX009 (ip), vehicle: saline with Tween-80 95 % of control and 98 % of control

COC(=O)c1ccc(/C=C/c2ccc(S(=O)(=O)F)cc2)cc1
inactive: dose: 100.0 mg/kg/injection, schedule: Q01DX001 (ip), vehicle: Klucel (hydroxypropylcellulose) (HPC) 91 % of control | dose: 200.0 mg/kg/injection, schedule: Q01DX001 (ip), vehicle: Klucel (hydroxypropylcellulose) (HPC) 91 % of control | dose: 400.0 mg/kg/injection, schedule: Q01DX001 (ip), vehicle: Klucel (hydroxypropylcellulose) (HPC) 97 % of control
